Read-outs that look alike come from different tables or passages of the source.
Assays:
[1] = tested on: Yersinia enterocolitica; assay: Inactivation of Yersinia enterocolitica in RBC (colony count); format: cell-based
[2] = tested on: Staphylococcus epidermidis; assay: Inactivation of Staphylococcus epidermidis in RBC (colony count); settings: for Change in Log titer: initial RBC titer 6.5
Procedure: Whole blood (Blood Source, Sacramento, Calif.) was used to prepare a red blood cell (RBC) composition by centrifuging to provide packed RBC (34 mL of approximately 90% hematocrit), then adding 17 mL Erythrosol to a hematocrit of approximately 60%. Erythrosol is a red blood cell additive (Baxter Healthcare Corp., Deerfield, Ill.) that may be prepared by combining sodium citrate dihydrate (7.82 g); sodium acid phosphate dihydrate (0.73 g); sodium phosphate dihydrate (3.03 g); adenine (0.22 g); mannitol (7.74 g); and glucose (9 g) in 1 liter of distilled water. The bacterial preparation was then added ( 1/100th of the total volume) to the RBC/Erythrosol to provide contaminated RBC. The contaminated RBC was divided into several samples and treated according to Table 2, where PIC-1 is β-alanine, N-(acridin-9-yl), 2-[bis(2-chloroethyl)amino]ethyl ester. The PIC-1 and glutathione (Aldrich, St. Louis, Mo.) were dissolved in a solution of 8% dextrose monohydrate at about 15× the desired concentration in the final red blood cell composition when added together, or 30× when added separately. […] For separate addition using 20 mM neutralized glutathione, PIC-1 is prepared by dissolving 7.6 mg in 2.5 mL of 8% dextrose, glutathione is prepared by dissolving 460 mg in 1.9 mL of 8% dextrose and mixing with 0.6 mL of 5N NaOH, then adding 165 μL of each solution to 4.67 mL RBC in the appropriate order. Following treatment, the samples were incubated for 2 hours, and 100 μL of each was serially diluted and plated on LB plates. These were incubated overnight at 37° C. in order to assess bacterial growth. The bacterial titer was determined by counting colonies on the plates and based on the dilution of the plate, the titer was determined. For example, with 10-fold serial dilutions, 30 colonies counted on the 5th dilution of the original solution, where 0.1 mL are plated, would indicate an initial titer of (30×10^5)/0.1=3×10^7, or 7.47 log. […] Note that for most samples in Table 2A the PIC-1 and glutathione were formulated together. […] The study was repeated with sequential addition of the two components, as indicated in Table 2B (time delay of 0 indicates they were added in the same solution).
Additional studies were done using S. epidermidis, where the overnight culture was used without dilution. […] PIC-1 is at 0.2 mM in all samples.
For these samples, the NaOH stock was prepared at 10N and appropriate volumes of the various components were used following the procedures above. Standard conditions and/or 20 mM neutralized glutathione (GSH) were run for comparison.

[3] = tested on: leukocytes; settings: standard pathogen inactivation conditions; cited from earlier work
[4] = tested on: red blood cells
Source text: Methods for determining ATP, 2,3-DPG, glucose, hemoglobin, hemolysis, and potassium are available in the art. See for example, Davey et al., Transfusion, 32:525-528 (1992), the disclosure of which is incorporated herein. Methods for determining red blood cell function are also described in Greenwalt et al., Vox Sang, 58:94-99 (1990); Hogman et al., Vox Sang, 65:271-278 (1993); and Beutler et al., Blood, Vol. 59 (1982) the disclosures of which are incorporated herein by reference. For example, intracellular ATP and intracellular 2,3-DPG are measured using a Sigma ATP kit or 2,3-DPG kit (Sigma, St. Louis, Mo.). The ATP kit is used following Sigma procedure No. 366-UV, the disclosure of which is hereby incorporated by reference. […] The extracellular pH is measured by centrifuging the cells at 4° C. for 15 minutes at 12,000×g and removing the supernatant, for which the pH is measured using a standard pH meter at room temperature (e.g. Beckman, Epoxy Calomel electrode). For the intracellular pH, the remaining pellet is capped in the centrifuge tube and stored at about −80° C. for at least 2 hours. This is then lysed by the addition of deionized water. […] Measurements can be made shortly after treatment and as a function of post treatment storage, for example storage for up to 42 days.
Full units of red cell concentrates (Interstate Blood Bank, Inc., Memphis, Tenn.) were leukoreduced. A volume of 200 mL of this RCC (80% hematocrit) was mixed with 94 mL of Erythrosol or 100 mL of Adsol (Baxter Healthcare Corp., Deerfield, Ill.) as control (unit 1). A volume of 20 mL 8% dextrose was used to dissolve PIC-1 (mg) and acid glutathione (mg) and added to one unit to provide 0.2 mM PIC-1 and 2 mM glutathione (unit 2). […] For the glutathione, 1.2 mL of 10 N NaOH was added (2 equivalents). The PIC-1 was mixed with the unit, followed 1 minute later (unit 3) or 5 minutes later (unit 4) by glutathione. For unit 5, neutralized glutathione was mixed first, followed 10 minutes later by the PIC-1. […] All units were mixed by grasping the ends of the blood bag and mixing in a FIG. 8 motion 30 times. These were then incubated at room temperature for 20 hours total. A compound adsorption device (CAD), comprising a polymeric resin contained within a mesh pouch, was used for all but the control sample. This device is intended to remove residual PIC-1, PIC-1 breakdown products, and glutathione from the samples. Samples were incubated for 8 hours, then transferred to a second blood bag containing the CAD and incubated for an additional 12 hours. Following the room temperature incubation, samples were transferred to a refrigerator (4° C.) and stored up to 43 days. Aliquots were removed from each unit 12 hours and 20 hours post mixing, and every week thereafter. Aliquots were analyzed for total hemoglobin, pH, intracellular ATP, plasma hemoglobin, potassium, extracellular glucose and extracellular lactate.

[5] = 0.2 mM PIC-1, 2 mM acidic glutathione (0 eq base), no delay
[6] = 20 mM cysteine+1 eq base, then 0.2 mM PIC-1 after 10 min
[7] = 20 mM cysteine+2 eq base, then 0.2 mM PIC-1 after 10 min
[8] = 20 mM glutathione+2 eq base, then 0.2 mM PIC-1 after 10 min
[9] = 0.2 mM PIC-1, then 20 mM glutathione+2 eq base after 1 min
[10] = 0.2 mM PIC-1, then 20 mM glutathione+2 eq base after 5 min
[11] = 0.2 mM PIC-1, then 20 mM glutathione+2 eq base after 10 min
[12] = 0.2 mM PIC-1, then 20 mM glutathione+2 eq base after 20 min
[13] = 0.2 mM PIC-1 and 2 mM glutathione, 0 eq base, simultaneous
[14] = 0.2 mM PIC-1 and 20 mM glutathione, 0 eq base, simultaneous
[15] = 20 mM glutathione+2 eq base, then 0.2 mM PIC-1 after 1 min
[16] = Table 5C: 0.2 mM PIC-1+2 mM GSH, 0 eq base, no delay
[17] = Table 5C: 5 mM Cys+1 eq base, then 0.2 mM PIC-1 after 10 min
[18] = Table 5C: 10 mM Cys+1 eq base, then 0.2 mM PIC-1 after 10 min
[19] = Table 5C: 20 mM Cys+1 eq base, then 0.2 mM PIC-1 after 10 min
[20] = Table 5C: 20 mM GSH+2 eq base, then 0.2 mM PIC-1 after 10 min
[21] = Table 5C: […] Cys+1 eq base, then 0.2 mM PIC-1 after 10 min

O=C(CCNc1c2ccccc2nc2ccccc12)OCCN(CCCl)CCCl [PIC-1]
Log Y. enterocolitica reduction [1, 5]: 8.49 Log
Log Y. enterocolitica titer [1, 5]: 0.00 Log
Log Y. enterocolitica reduction [1, 6]: 4.04 Log
Log Y. enterocolitica titer [1, 6]: 4.45 Log
Log Y. enterocolitica reduction [1, 7]: 5.79 Log
Log Y. enterocolitica titer [1, 7]: 2.70 Log
Log Y. enterocolitica reduction [1, 8]: 5.95 Log
Log Y. enterocolitica titer [1, 8]: 2.54 Log
reduction of log inactivation relative to the standard condition ([1]; 20 mM neutralized cysteine or neutralized glutathione, 0.2 mM PIC-1): about 2.5 log
Log S. epidermidis reduction [2, 9]: 6.70 Log
Log S. epidermidis titer [2, 9]: −0.08 Log
Log S. epidermidis reduction [2, 10]: 6.70 Log
Log S. epidermidis titer [2, 10]: −0.08 Log
Log S. epidermidis reduction [2, 11]: 6.70 Log
Log S. epidermidis titer [2, 11]: −0.08 Log
Log S. epidermidis reduction [2, 12]: 6.70 Log
Log S. epidermidis titer [2, 12]: −0.08 Log
Log S. epidermidis reduction [2, 13]: 6.70 Log
Log S. epidermidis titer [2, 13]: −0.08 Log
Log S. epidermidis reduction [2, 14]: 0.22 Log
Log S. epidermidis titer [2, 14]: 6.40 Log
Log S. epidermidis reduction [2, 15]: 6.10 Log
Log S. epidermidis titer [2, 15]: 0.52 Log
Log S. epidermidis reduction [2, 8]: 5.92 Log
Log S. epidermidis titer [2, 8]: 0.70 Log
inactivation of S. epidermidis ([2]; 20 mM neutralized glutathione as quencher, 0.2 mM PIC-1): not significantly reduced
Log S. epidermidis reduction [2, 16]: 7.2 Log
Log S. epidermidis titer [2, 16]: 0 Log
Log S. epidermidis reduction [2, 17]: 7.2 Log
Log S. epidermidis titer [2, 17]: 0 Log
Log S. epidermidis reduction [2, 18]: 4.9 Log
Log S. epidermidis titer [2, 18]: 2.3 Log
Log S. epidermidis reduction [2, 19]: 4.0 Log
Log S. epidermidis titer [2, 19]: 3.2 Log
Log S. epidermidis reduction [2, 20]: 7.2 Log
Log S. epidermidis titer [2, 20]: 0 Log
Log S. epidermidis reduction [2, 21]: 7.2 Log
Log S. epidermidis titer [2, 21]: 0 Log
Change in Log titer ([2]; 2 mM GSH, 1 eq. base, 0.2 mM PIC-1): 6.5 Log
Change in Log titer ([2]; 2 mM GSH, 2 eq. base, 0.2 mM PIC-1): 6.5 Log
Change in Log titer ([2]; 2 mM GSH, no added base, 0.2 mM PIC-1): 6.5 Log
Change in Log titer ([2]; 5 mM GSH, 1 eq. base, 0.2 mM PIC-1): 6.5 Log
Change in Log titer ([2]; 5 mM GSH, 2 eq. base, 0.2 mM PIC-1): 6.5 Log
Change in Log titer ([2]; 5 mM GSH, no added base, 0.2 mM PIC-1): 6.5 Log
Change in Log titer ([2]; 10 mM GSH, 1 eq. base, 0.2 mM PIC-1): 6.5 Log
Change in Log titer ([2]; 10 mM GSH, 2 eq. base, 0.2 mM PIC-1): 6.5 Log
Change in Log titer ([2]; 10 mM GSH, no added base, 0.2 mM PIC-1): 2.9 Log
Change in Log titer ([2]; 20 mM GSH, 1 eq. base, 0.2 mM PIC-1): 6.5 Log
Change in Log titer ([2]; 20 mM GSH, 2 eq. base, 0.2 mM PIC-1): 6.5 Log
Change in Log titer ([2]; 20 mM GSH, no added base, 0.2 mM PIC-1): 2.5 Log
leukocyte inactivation (level of detection of limiting dilution assay) [3]: 5.3 log
Percent Hemolysis ([4]; 16B day 0, sample 2: standard 0.2 mM PIC-1+2 mM GSH): 0.22%
Percent Hemolysis ([4]; 16B day 0, sample 3: 0.2 mM PIC-1, 1' delay, 20 mM GSH+2 eq base): 0.19%
Percent Hemolysis ([4]; 16B day 0, sample 4: 0.2 mM PIC-1, 5' delay, 20 mM GSH+2 eq base): 0.19%
Percent Hemolysis ([4]; 16B day 0, sample 5: 20 mM GSH+2 eq base, 10' delay, 0.2 mM PIC-1): 0.19%
Percent Hemolysis ([4]; 16B day 0.5, sample 2: standard 0.2 mM PIC-1+2 mM GSH): 0.24%
Percent Hemolysis ([4]; 16B day 0.5, sample 3: 0.2 mM PIC-1, 1' delay, 20 mM GSH+2 eq base): 0.16%
Percent Hemolysis ([4]; 16B day 0.5, sample 4: 0.2 mM PIC-1, 5' delay, 20 mM GSH+2 eq base): 0.25%
Percent Hemolysis ([4]; 16B day 0.5, sample 5: 20 mM GSH+2 eq base, 10' delay, 0.2 mM PIC-1): 0.24%
Percent Hemolysis ([4]; 16B day 0.8, sample 2: standard 0.2 mM PIC-1+2 mM GSH): 0.46%
Percent Hemolysis ([4]; 16B day 0.8, sample 3: 0.2 mM PIC-1, 1' delay, 20 mM GSH+2 eq base): 0.40%
Percent Hemolysis ([4]; 16B day 0.8, sample 4: 0.2 mM PIC-1, 5' delay, 20 mM GSH+2 eq base): 0.48%
Percent Hemolysis ([4]; 16B day 0.8, sample 5: 20 mM GSH+2 eq base, 10' delay, 0.2 mM PIC-1): 0.47%
Percent Hemolysis ([4]; 16B day 7, sample 2: standard 0.2 mM PIC-1+2 mM GSH): 0.62%
Percent Hemolysis ([4]; 16B day 7, sample 3: 0.2 mM PIC-1, 1' delay, 20 mM GSH+2 eq base): 0.35%
Percent Hemolysis ([4]; 16B day 7, sample 4: 0.2 mM PIC-1, 5' delay, 20 mM GSH+2 eq base): 0.52%
Percent Hemolysis ([4]; 16B day 7, sample 5: 20 mM GSH+2 eq base, 10' delay, 0.2 mM PIC-1): 0.57%
Percent Hemolysis ([4]; 16B day 14, sample 2: standard 0.2 mM PIC-1+2 mM GSH): 0.69%
Percent Hemolysis ([4]; 16B day 14, sample 3: 0.2 mM PIC-1, 1' delay, 20 mM GSH+2 eq base): 0.50%
Percent Hemolysis ([4]; 16B day 14, sample 4: 0.2 mM PIC-1, 5' delay, 20 mM GSH+2 eq base): 0.52%
Percent Hemolysis ([4]; 16B day 14, sample 5: 20 mM GSH+2 eq base, 10' delay, 0.2 mM PIC-1): 0.55%
Percent Hemolysis ([4]; 16B day 22, sample 2: standard 0.2 mM PIC-1+2 mM GSH): 0.87%
Percent Hemolysis ([4]; 16B day 22, sample 3: 0.2 mM PIC-1, 1' delay, 20 mM GSH+2 eq base): 0.59%
Percent Hemolysis ([4]; 16B day 22, sample 4: 0.2 mM PIC-1, 5' delay, 20 mM GSH+2 eq base): 0.62%
Percent Hemolysis ([4]; 16B day 22, sample 5: 20 mM GSH+2 eq base, 10' delay, 0.2 mM PIC-1): 0.63%
Percent Hemolysis ([4]; 16B day 28, sample 2: standard 0.2 mM PIC-1+2 mM GSH): 0.86%
Percent Hemolysis ([4]; 16B day 28, sample 3: 0.2 mM PIC-1, 1' delay, 20 mM GSH+2 eq base): 0.63%
Percent Hemolysis ([4]; 16B day 28, sample 4: 0.2 mM PIC-1, 5' delay, 20 mM GSH+2 eq base): 0.64%
Percent Hemolysis ([4]; 16B day 28, sample 5: 20 mM GSH+2 eq base, 10' delay, 0.2 mM PIC-1): 0.65%
Percent Hemolysis ([4]; 16B day 35, sample 2: standard 0.2 mM PIC-1+2 mM GSH): 0.99%
Percent Hemolysis ([4]; 16B day 35, sample 3: 0.2 mM PIC-1, 1' delay, 20 mM GSH+2 eq base): 0.74%
Percent Hemolysis ([4]; 16B day 35, sample 4: 0.2 mM PIC-1, 5' delay, 20 mM GSH+2 eq base): 0.76%
Percent Hemolysis ([4]; 16B day 35, sample 5: 20 mM GSH+2 eq base, 10' delay, 0.2 mM PIC-1): 0.71%
Percent Hemolysis ([4]; 16B day 43, sample 2: standard 0.2 mM PIC-1+2 mM GSH): 1.17%
Percent Hemolysis ([4]; 16B day 43, sample 3: 0.2 mM PIC-1, 1' delay, 20 mM GSH+2 eq base): 0.82%
Percent Hemolysis ([4]; 16B day 43, sample 4: 0.2 mM PIC-1, 5' delay, 20 mM GSH+2 eq base): 0.90%
Percent Hemolysis ([4]; 16B day 43, sample 5: 20 mM GSH+2 eq base, 10' delay, 0.2 mM PIC-1): 0.83%

From patent US7655392B2, “Quenching methods for red blood cell inactivation process” (priority 2004, dated 2010)
